Experimental findings from US12486278B2, “MASP-2 inhibitors and methods of use” (Omeros Corporation, priority 2019, dated 2025) are described below.

In the assay the target is T1, MASP-2 (CCP1-CCP2-SP) (Homo sapiens, UniProt O00187).
T1 construct: 15 μL of Enzyme MASP-2 (CCP1-CCP2-SP) in Assay Buffer
Description: Enzymatic Assay for MASP-2 (fluorogenic substrate). The note with it: fluorogenic substrate based on C2 cleavage site; room temperature, 20 min; 20 mM HEPES pH 7.4, 140 mM NaCl, 0.1% Tween 20. Type of assay: biochemical. The protocol:
The MASP-2 assay utilizes a fluorogenic substrate, based on the cleavage site for its natural substrate C2. The assay is run at room temperature in an assay buffer containing 20 mM HEPES, pH 7.4, 140 mM NaCl and 0.1% Tween 20. Assay parameters are adjusted such that the assay is linear with respect to time, enzyme, and substrate concentrations. Under these optimized assays conditions, IC50 values are equivalent to Ki values, except in a few cases of “tight binding” inhibitors. Cases of “tight binding” or possible “slow binding” inhibitors are handled by the methods described in Copeland R. A. (2013) Evaluation of Enzyme Inhibitors in Drug Discovery. 2nd Ed., John Wiley and Sons, Inc., Chapters 5-7.
The MASP-2 assay protocol is carried out as follows. Test compounds are serially diluted in DMSO and then 100 nL of each dilution is transferred to the assay plate(s). 10 μL of Assay Buffer is added, followed by 15 μL of Enzyme MASP-2 (CCP1-CCP2-SP) in Assay Buffer. 15 μL of Substrate in Assay Buffer is then added and mixed to start the reactions. After 20 min at room temperature, 15 μL of a stop solution (0.1 M acetic acid) is added, mixed and the plates are read on a SpectraMax i3x Microplate Reader and exported as Excel files. Each assay plate included a “no inhibitor” (DMSO Only) control, a “no enzyme” control and a reference inhibitor control. % Activity values=100*(average test comp. fluorescence−average “no enzyme” fluorescence)/(average “DMSO only” fluorescence−average “no enzyme” fluorescence). IC50 and Ki values are very reproducible, falling well within ±2-fold.

SMILES strings stand for the structures. Where a name gives a salt, the structure may show the parent alone.

T1 sequence (O00187 445-686 limits assumed): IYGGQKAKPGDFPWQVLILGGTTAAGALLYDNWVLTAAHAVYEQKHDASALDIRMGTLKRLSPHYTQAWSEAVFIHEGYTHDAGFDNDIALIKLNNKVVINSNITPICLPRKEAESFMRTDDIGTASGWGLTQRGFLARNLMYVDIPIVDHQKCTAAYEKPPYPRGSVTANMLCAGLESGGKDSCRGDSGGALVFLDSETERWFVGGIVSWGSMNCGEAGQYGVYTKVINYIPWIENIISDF
T1 sequence (O00187 298-444 partner limits assumed): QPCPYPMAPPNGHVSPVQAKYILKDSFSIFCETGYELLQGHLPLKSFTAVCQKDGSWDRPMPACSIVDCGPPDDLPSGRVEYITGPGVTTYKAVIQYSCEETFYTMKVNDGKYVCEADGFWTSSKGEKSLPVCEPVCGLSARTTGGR

Usually Ki stands for the dissociation constant of the complex between target and ligand, obtained from inhibition or displacement. The compound `C[C@H](NC(=O)[C@H]1C[C@H](c2ccccc2)CN1)C(=O)NCc1ccc(C(=N)N)cc1Cl` [Compound I-24, (2R,4R)—N—((S)-1-((4-Carbamimidoyl-2-Chlorobenzyl)Amino)-1-Oxopropan-2-Yl)-4-Phenylpyrrolidine-2-Carboxamide Di-Trifluoroacetate] displayed a Ki of less than 0.5 µM. As to `C[C@H](NC(=O)[C@H]1C[C@H](Cc2ccc(F)c(Cl)c2)CN1)C(=O)NCc1cnc2[nH]cc(Cl)c2c1` [Compound I-25, (2R,4S)—N—((S)-1-(((3-Chloro-1H-Pyrrolo[2,3-B]Pyridin-5-Yl)Methyl)Amino)-1-Oxopropan-2-Yl)-4-(3-Chloro-4-Fluorobenzyl)Pyrrolidine-2-Carboxamide Trifluoroacetate], the Ki was less than 0.5 µM. To `CCN1C[C@@H](Cc2ccc(F)c(Cl)c2)C[C@@H]1C(=O)N[C@@H](C)C(=O)NCc1cnc2c(c1)c(Cl)cn2C` [Compound I-26, (2R,4S)—N—((S)-1-(((3-Chloro-1-Methyl-1H-Pyrrolo[2,3-B]Pyridin-5-Yl)Methyl)Amino)-1-Oxopropan-2-Yl)-4-(3-Chloro-4-Fluorobenzyl)-1-Ethylpyrrolidine-2-Carboxamide] belongs less than 0.5 µM; to `CCN1C[C@@H](Cc2ccc(F)c(Cl)c2)C[C@@H]1C(=O)N[C@@H](C)C(=O)NCc1cnc2[nH]cc(Cl)c2c1` [Compound I-27, (2R,4S)—N—((S)-1-(((3-Chloro-1H-Pyrrolo[2,3-B]Pyridin-5-Yl)Methyl)Amino)-1-Oxopropan-2-Yl)-4-(3-Chloro-4-Fluorobenzyl)-1-Ethylpyrrolidine-2-Carboxamide], less than 0.5 µM; to `CCOC(=O)CCN1CC[C@H](c2ccccc2)C[C@@H]1C(=O)N[C@@H](C)C(=O)NCc1cc(Cl)ccc1-n1cnnn1` [Compound I-28, Ethyl 3-((2R,4S)-2-(((S)-1-((5-Chloro-2-(1H-Tetrazol-1-Yl)Benzyl)Amino)-1-Oxopropan-2-Yl)Carbamoyl)-4-Phenylpiperidin-1-Yl)Propanoate], 2.5 to 10 µM. To `C[C@H](NC(=O)[C@H]1C[C@@H](c2ccccc2)CCN1CCC(=O)O)C(=O)NCc1cc(Cl)ccc1-n1cnnn1` [Compound I-29, 3-((2R,4S)-2-(((S)-1-((5-Chloro-2-(1H-Tetrazol-1-Yl)Benzyl)Amino)-1-Oxopropan-2-Yl)Carbamoyl)-4-Phenylpiperidin-1-Yl)Propanoic Acid Trifluoroacetate] belongs 2.5 to 10 µM.

In the case of `C[C@H](NC(=O)[C@H]1C[C@H](Cc2ccccc2)CN1)C(=O)NCc1ccc2c(c1)ncn2C` [Compound I-30, (2R,4S)-4-Benzyl-N—((S)-1-(((1-Methyl-1H-Benzo[D]Imidazol-5-Yl)Methyl)Amino)-1-Oxopropan-2-Yl)Pyrrolidine-2-Carboxamide Trifluoroacetate], the Ki lay in the range of 2.5 to 10 µM.

Take `CCOC(=O)CCN1CC[C@H](c2ccccc2)C[C@@H]1C(=O)N[C@@H](C)C(=O)NCc1ccc(C(=N)N)cc1` [Compound I-31, Ethyl 3-((2R,4S)-2-(((S)-1-((4-Carbamimidoylbenzyl)Amino)-1-Oxopropan-2-Yl)Carbamoyl)-4-Phenylpiperidin-1-Yl)Propanoate]: the Ki was less than 0.5 µM. `C[C@H](NC(=O)[C@H]1C[C@@H](c2ccccc2)CCN1CCC(=O)O)C(=O)NCc1ccc(C(=N)N)cc1` [Compound I-32, 3-((2R,4S)-2-(((S)-1-((4-Carbamimidoylbenzyl)Amino)-1-Oxopropan-2-Yl)Carbamoyl)-4-Phenylpiperidin-1-Yl)Propanoic Acid Di-Trifluoroacetate]: the Ki is less than 0.5 µM.

In turn, `Cc1nc(N)ccc1CNC(=O)[C@H](C)NC(=O)[C@H]1C[C@H](Cc2ccc(F)c(Cl)c2)CN1CC(=O)O` [Compound I-33, 2-((2R,4S)-2-(((S)-1-(((6-Amino-2-Methylpyridin-3-Yl)Methyl)Amino)-1-Oxopropan-2-Yl)Carbamoyl)-4-(3-Chloro-4-Fluorobenzyl)Pyrrolidin-1-Yl)Acetic Acid Di-Trifluoroacetate] came in with a Ki of less than 0.5 µM. To `C[C@H](NC(=O)[C@H]1C[C@@H](c2ccccc2)CCN1CC(=O)O)C(=O)NCc1ccc(C(=N)N)cc1` [Compound I-34, 2-((2R,4S)-2-(((S)-1-((4-Carbamimidoylbenzyl)Amino)-1-Oxopropan-2-Yl)Carbamoyl)-4-Phenylpiperidin-1-Yl)Acetic Acid Di-Trifluoroacetate] belongs less than 0.5 µM. Compound `C[C@H](NC(=O)[C@H]1C[C@H](c2ccccc2)CN1CC(=O)O)C(=O)NCc1ccc(C(=N)N)cc1` [Compound I-35, 2-((2R,4R)-2-(((S)-1-((4-Carbamimidoylbenzyl)Amino)-1-Oxopropan-2-Yl)Carbamoyl)-4-Phenylpyrrolidin-1-Yl)Acetic Acid Di-Trifluoroacetate] showed a Ki of less than 0.5 µM. To `C[C@H](NC(=O)[C@H]1C[C@H](Cc2ccc(F)c(Cl)c2)CN1CCC(=O)O)C(=O)NCc1ccc(C(=N)N)cc1` [Compound I-36, 3-((2R,4S)-2-(((S)-1-((4-Carbamimidoylbenzyl)Amino)-1-Oxopropan-2-Yl)Carbamoyl)-4-(3-Chloro-4-Fluorobenzyl)Pyrrolidin-1-Yl)Propanoic Acid Di-Trifluoroacetate] belongs less than 0.5 µM; to `C[C@H](NC(=O)[C@H]1C[C@H](Cc2ccc(F)cc2)CN1CCC(=O)O)C(=O)NCc1ccc(C(=N)N)cc1` [Compound I-37, 3-((2R,4S)-2-(((S)-1-((4-Carbamimidoylbenzyl)Amino)-1-Oxopropan-2-Yl)Carbamoyl)-4-(4-Fluorobenzyl)Pyrrolidin-1-Yl)Propanoic Acid Di-Trifluoroacetate], less than 0.5 µM.

`C[C@H](NC(=O)[C@H]1C[C@@H](c2ccccc2)CCN1CCP(=O)(O)O)C(=O)NCc1ccc(C(=N)N)cc1` [Compound I-38, (2-((2R,4S)-2-(((S)-1-((4-Carbamimidoylbenzyl)Amino)-1-Oxopropan-2-Yl)Carbamoyl)-4-Phenylpiperidin-1-Yl)Ethyl)Phosphonic Acid Di-Trifluoroacetate] returned a Ki of less than 0.5 µM.

Compound `C[C@H](NC(=O)[C@H]1C[C@@H](c2ccccc2)CCN1CCP(=O)(O)O)C(=O)NCc1cc2cnccc2[nH]1` [Compound I-39, (2-((2R,4S)-2-(((S)-1-(((1H-Pyrrolo[3,2-C]Pyridin-2-Yl)Methyl)Amino)-1-Oxopropan-2-Yl)Carbamoyl)-4-Phenylpiperidin-1-Yl)Ethyl)Phosphonic Acid Di-Trifluoroacetate] showed a Ki of less than 0.5 µM. In turn, `C[C@H](NC(=O)[C@H]1C[C@@H](c2ccccc2)CCN1CCCP(=O)(O)O)C(=O)NCc1cc(Cl)ccc1-n1cnnn1` [Compound I-40, (3-((2R,4S)-2-(((S)-1-((5-Chloro-2-(1H-Tetrazol-1-Yl)Benzyl)Amino)-1-Oxopropan-2-Yl)Carbamoyl)-4-Phenylpiperidin-1-Yl)Propyl)Phosphonic Acid Di-Trifluoroacetate] showed a Ki of 0.5 to 2.5 µM.

Consider `Cc1nc(N)ccc1CNC(=O)[C@H](C)NC(=O)[C@H]1C[C@@H](c2ccccc2)CCN1CCNS(C)(=O)=O` [Compound I-41, (2R,4S)—N—((S)-1-(((6-Amino-2-Methylpyridin-3-Yl)Methyl)Amino)-1-Oxopropan-2-Yl)-1-(2-(Methylsulfonamido)Ethyl)-4-Phenylpiperidine-2-Carboxamide Di-Trifluoroacetate], for which the Ki fell in the range of 2.5 to 10 µM. Under `C[C@H](NC(=O)[C@H]1C[C@@H](c2ccccc2)CCN1CCNS(C)(=O)=O)C(=O)NCc1cc2cnccc2[nH]1` [Compound I-42, (2R,4S)—N—((S)-1-(((1H-Pyrrolo[3,2-C]Pyridin-2-Yl)Methyl)Amino)-1-Oxopropan-2-Yl)-1-(2-(Methylsulfonamido)Ethyl)-4-Phenylpiperidine-2-Carboxamide Di-Trifluoroacetate] stands less than 0.5 µM; under `C[C@H](NC(=O)[C@H]1C[C@@H](c2ccccc2)CCN1CCNS(C)(=O)=O)C(=O)NCc1ccc(C(=N)N)cc1` [Compound I-43, (2R,4S)—N—((S)-1-((4-Carbamimidoylbenzyl)Amino)-1-Oxopropan-2-Yl)-1-(2-(Methylsulfonamido)Ethyl)-4-Phenylpiperidine-2-Carboxamide Di-Trifluoroacetate], less than 0.5 µM. On to `Cc1nc(N)ccc1CNC(=O)[C@H](C)NC(=O)[C@H]1C[C@H](Cc2cccc(C3CC3)c2)CN1` [Compound I-44, (2R,4S)—N—((S)-1-(((6-Amino-2-Methylpyridin-3-Yl)Methyl)Amino)-1-Oxopropan-2-Yl)-4-(3-Cyclopropylbenzyl)Pyrrolidine-2-Carboxamide Di-Trifluoroacetate], for which the Ki was less than 0.5 µM. To `[2H]C([2H])([2H])n1cc(Cl)c2cc(CNC(=O)[C@H](C)NC(=O)[C@H]3C[C@H](Cc4ccccc4)CN3)cnc21` [Compound I-45, (2R,4S)-4-Benzyl-N—((S)-1-(((3-Chloro-1-(Methyl-D3)-1H-Pyrrolo[2,3-B]Pyridin-5-Yl)Methyl)Amino)-1-Oxopropan-2-Yl)Pyrrolidine-2-Carboxamide Hydrochloride] belongs less than 0.5 µM.
